The text below walks through data of ChEMBL document CHEMBL3044639, “Synthesis and biologic activities of some novel heterocyclic chalcone derivatives” (Med Chem Res, 2013).

Each structure is given as a SMILES string. Active and inactive are the calls of the source. The rule behind the calls is not given here.

The subject of one assay is HL-60. Kind of assay: Cytotoxicity against Homo sapiens (human) HL60 cells assessed as growth inhibition after 48 hr by MTT assay. To be noted: HL-60, 48 h. The format is functional, cell-based.
What is called IC50 is the concentration at which inhibition is half-maximal. In the case of `O=C(/C=C/c1cccc([N+](=O)[O-])c1)c1ccco1`, the IC50 was found to be 14 µM.
Still for that read-out and setting: the same measure for `O=C(/C=C/c1ccc(Cl)cc1)c1ccco1`: 19 µM.
Consider `O=C(/C=C/c1cc([N+](=O)[O-])ccc1Cl)c1ccc[nH]1`, for which the IC50 was found to be 38 µM.
Take `O=C(/C=C/c1ccc(Cl)cc1)c1ccc[nH]1`: the IC50 was 13 µM.
Same read-out and setting: the same measure for `O=C(/C=C/c1cccc([N+](=O)[O-])c1)c1ccc[nH]1`: 20 µM.

In the next assay the test system is Staphylococcus aureus. Nature of the assay: Antibacterial activity against Staphylococcus aureus 1199B overexpressing NorA assessed as reduction of ciprofloxacin MIC at MEC after 18 hr by broth checkerboard method relative to control. Format: functional.
Conditions: not given
`O=C(/C=C/c1cccc([N+](=O)[O-])c1)c1ccco1`: the “fold change (FC)” value was determined as 0.
Same read-out and setting: the same measure for `O=C(/C=C/c1ccc(Cl)cc1)c1ccco1`: 0.
With `O=C(/C=C/c1cc([N+](=O)[O-])ccc1Cl)c1ccc[nH]1`, the “fold change (FC)” value is 0.
The same measure, in the same setting: the same measure for `O=C(/C=C/c1ccc(Cl)cc1)c1ccc[nH]1`: 0.
Still for that read-out and setting: the value for `O=C(/C=C/c1cccc([N+](=O)[O-])c1)c1ccc[nH]1` was 0.

For another assay, the system named is Staphylococcus aureus. Nature of the assay: Antibacterial activity against Staphylococcus aureus 1199B overexpressing NorA assessed as growth inhibition after 18 hr by broth checkerboard method. The format is functional. The settings on record: read-out: MEC.
With `O=C(/C=C/c1cccc([N+](=O)[O-])c1)c1ccco1`, the minimal effective concentration is above 50 µg/mL.
Turning to `O=C(/C=C/c1ccc(Cl)cc1)c1ccco1`, the minimal effective concentration is above 50 µg/mL.
Still for that read-out and setting: the value for `O=C(/C=C/c1cc([N+](=O)[O-])ccc1Cl)c1ccc[nH]1` was above 50 µg/mL; that for `O=C(/C=C/c1ccc(Cl)cc1)c1ccc[nH]1` was above 50 µg/mL.
On to `O=C(/C=C/c1cccc([N+](=O)[O-])c1)c1ccc[nH]1`, for which the minimal effective concentration was above 50 µg/mL.

For the next assay, the system named is Radical scavenging activity. Nature of the assay: Antioxidant activity assessed as DPPH radical scavenging activity after 20 min by microplate ELISA reader analysis. Format: functional.
Conditions: not given
A general note: DPPH is a stable violet radical that fades when it is reduced.
As to `O=C(/C=C/c1cccc([N+](=O)[O-])c1)c1ccco1`, the result was inactive.
With `O=C(/C=C/c1ccc(Cl)cc1)c1ccco1`, the outcome was inactive.
For the molecule `O=C(/C=C/c1cc([N+](=O)[O-])ccc1Cl)c1ccc[nH]1`, the result was inactive.
As to `O=C(/C=C/c1ccc(Cl)cc1)c1ccc[nH]1`, the result was inactive.
The same measure, in the same setting: the same measure for `O=C(/C=C/c1cccc([N+](=O)[O-])c1)c1ccc[nH]1`: “inactive”.

The next assay deals with Rattus norvegicus. Kind of assay: Anti-inflammatory activity in Wistar Rattus norvegicus (rat) assessed as inhibition of carrageenan-induced paw edema at 100 mg/kg, po administered 45 min prior to carrageenan-challenge measured 45 min to 4 hr post carrageenan-challenge relative to control. Format: functional.
Conditions: not given
In general terms: Carrageenan injected into the paw causes an acute inflammation.
On to `O=C(/C=C/c1cccc([N+](=O)[O-])c1)c1ccco1`, for which the inhibition entry is “inactive”.
Same read-out and setting: the same measure for `O=C(/C=C/c1ccc(Cl)cc1)c1ccco1`: “inactive”; for `O=C(/C=C/c1cc([N+](=O)[O-])ccc1Cl)c1ccc[nH]1`: “inactive”.
Take `O=C(/C=C/c1ccc(Cl)cc1)c1ccc[nH]1`: the inhibition entry was “inactive”.
`O=C(/C=C/c1cccc([N+](=O)[O-])c1)c1ccc[nH]1`: the inhibition result was “inactive”.

For a further assay, the system named is HeLa. Nature of the assay: Cytotoxicity against Homo sapiens (human) HeLa cells assessed as growth inhibition after 48 hr by MTT assay. The format is functional, cell-based.
Conditions: not given
Turning to `O=C(/C=C/c1cccc([N+](=O)[O-])c1)c1ccco1`, the IC50 is 22 µM.
Consider `O=C(/C=C/c1ccc(Cl)cc1)c1ccco1`, for which the IC50 turned out to be 38 µM.
The same measure, in the same setting: the same measure for `O=C(/C=C/c1cc([N+](=O)[O-])ccc1Cl)c1ccc[nH]1`: 68 µM; for `O=C(/C=C/c1ccc(Cl)cc1)c1ccc[nH]1`: 25 µM; for `O=C(/C=C/c1cccc([N+](=O)[O-])c1)c1ccc[nH]1`: 32 µM.

A further assay relates to MOLT-4. Nature of the assay: Cytotoxicity against Homo sapiens (human) MOLT4 cells assessed as growth inhibition after 48 hr by MTT assay. The format is functional, cell-based. The settings on record: MOLT-4, 48 h. On the technique in general: Formazan colour is commonly taken as a measure of viable cells.
On to `O=C(/C=C/c1cccc([N+](=O)[O-])c1)c1ccco1`, for which the IC50 was determined as 18 µM.
On the same count and under the same terms, the value for `O=C(/C=C/c1ccc(Cl)cc1)c1ccco1` was 23 µM; that for `O=C(/C=C/c1cc([N+](=O)[O-])ccc1Cl)c1ccc[nH]1` was 42 µM; that for `O=C(/C=C/c1ccc(Cl)cc1)c1ccc[nH]1` was 22 µM.
Still for that read-out and setting: the same measure for `O=C(/C=C/c1cccc([N+](=O)[O-])c1)c1ccc[nH]1`: 22 µM.

In another assay the test system is PC-3. Kind of assay: Cytotoxicity against Homo sapiens (human) PC3 cells assessed as growth inhibition after 48 hr by MTT assay. To be noted: PC-3, 48 h. Format: functional, cell-based.
As for `O=C(/C=C/c1cccc([N+](=O)[O-])c1)c1ccco1`, the IC50 is 14 µM.
Regarding `O=C(/C=C/c1ccc(Cl)cc1)c1ccco1`, the IC50 worked out at 29 µM.
On the same count and under the same terms, the same measure for `O=C(/C=C/c1cc([N+](=O)[O-])ccc1Cl)c1ccc[nH]1`: 55 µM.
Same read-out and setting: the value for `O=C(/C=C/c1ccc(Cl)cc1)c1ccc[nH]1` was 18 µM.
Still for that read-out and setting: the same measure for `O=C(/C=C/c1cccc([N+](=O)[O-])c1)c1ccc[nH]1`: 23 µM.
